# Columns and labels:
# Format in all cases: cell-based, mouse
# Flk1+ MPCs [1] = assay: Immunofluorescence staining of differentiating Flk1+ MPCs (CD144, αSMA, PHH3)
# Experimental: Cultured cells were fixed with 2% paraformaldehyde (PFA) and blocked with 5% goat (or donkey) serum in PBST (0.3% Triton X-100 in PBS) for 1 hr at room temperature (RT). The cells were incubated overnight at 4┌ C with the following primary antibodies: anti-mouse CD144 (clone 11D4.1, BD Pharmingen™), anti-mouse phospho-histone H3 (rabbit polyclonal, Upstate), anti-mouse cTnT (NeoMarkers), Cy3-conjugated anti-┌ SMA (clone 1A4, Sigma), and anti-mouse CD31 (clone 2H8, Chemicon). After washing in PBST 4 times, the cells were incubated for 2 hrs at RT with the following secondary antibodies: Cy3-conjugated anti-rabbit IgG (Jackson ImmunoResearch), Cy3-conjugated anti-hamster IgG (Jackson ImmunoResearch), Cy3-conjugated anti-mouse IgG antibody (Jackson ImmunoResearch) and FITC or Cy3-conjugated anti-rat (Jackson ImmunoResearch). F-actin and nuclei were stained with TRITC-phalloidin (Invitrogen) and 4′,6-diamidino-2-phenylindole (DAPI, Invitrogen), respectively. The cells were then mounted in fluorescent mounting medium (DAKO Corporation).
# Flk1+ MPCs [2] = assay: Apoptosis assay (Annexin V/PI) in differentiating Flk1+ MPCs; details: 6 and 36 hrs
# Experimental: (§1) Apoptosis assay was performed as previously described. To determine the cell cycle, BrdU/7-AAD cell cycle analysis was performed according to the manufacturer's instructions (BD Pharmingen™). Briefly, cells were incubated with BrdU (1 mM) for 1 hr, dissociated with dissociation buffer, and stained with anti-CD144 antibody. The cells were then fixed, permeabilized, and fixed once more, followed by 1 hr incubation with DNase I (200 U) at 37┌ C. After incubation with FITC-conjugated anti-BrdU antibody for 20 min at RT, the cells were stained with 7-AAD. The cells were analyzed by FACS Aria II and the data were analyzed using FlowJo software.
# ICAM2+ ECs = assay: Apoptosis assay (Annexin V/PI) in ICAM2+ ECs
# Experimental: FIGS. 15A-15D. ROCK suppression continuously promotes the expansion of ECs. ICAM2+ ECs were further incubated with PBS (Control), Y27632 (10┌ M), VEGF-A (50 ng/ml; VA) or Y27632 (10┌ M) plus VEGF-A (50 ng/ml) for 2 days, and analyses were performed at day 8.5. (FIG. 15A) Representative FACS analysis showing cell cycle in ICAM2+ ECs at 12 hrs. (FIG. 15B) % of ICAM2+ ECs under each phase of cell cycle at 12 hrs. Each group, n=3. *p<0.01 versus Control; ^#p<0.01 versus VEGF-A. (FIG. 15C) Representative FACS analysis of Annexin V+/PI− apoptotic ECs. (FIG. 15D) % of Annexin V+/PI− ECs. Each group, n=3. *p<0.01 versus Control.
# as §1
# Flk1+ MPCs [3] = assay: CM differentiation from Flk1+ MPCs in OP9 co-culture system
# Experimental: EMG7 mouse ESCs which have ┌-myosin heavy chain (MHC) promoter driven enhanced green fluorescent protein (GFP) gene and OP9 cells were a generous gift from Dr. Jun K. Yamashita (Kyoto University). EMG7 ESCs were plated on a 0.1% gelatin coated 60p dish and maintained in a medium (GMEM, Invitrogen) containing 10% knockout serum, 2-mercaptoethanol (Invitrogen), sodium pyruvate (Invitrogen), non-essential amino acid and antibiotics (Invitrogen). leukemia inhibitory factor (LIF), Blasticidin (Invitrogen) and G418 (Invitrogen) were added in the medium at the time of the medium change. OP9 cells were maintained in a medium (alpha MEM, Invitrogen) containing 20% of fetal bovine serum (FBS), 2-mercaptoethanol (Invitrogen), L-glutamine (Invitrogen) and antibiotics (Invitrogen). The medium was changed every 2 days for both EMG7 ESCs and OP9 cells. For induction of Flk1+MPCs, EMG7 ESCs were cultured and plated on a 0.1% gelatin coated 100 p dish in the differentiation medium (alpha MEM, Invitrogen) with contained 10% FBS, 2-mercaptoethanol (Invitrogen), L-glutamine (Invitrogen) and antibiotics (Invitrogen) for 4.5 days (96-112 hours). The medium was changed every 2 days. At 4.5 days, differentiated EMG7 ESCs were harvested with 0.025% trypsin-EDTA and antigen recovery was performed in the differentiation medium for 30 minutes in an incubator. Then, cells were washed using phosphate buffered saline/10% FBS and attached with biotin-conjugated anti-mouse Flk1+ antibody (eBioscience) and […] MicroBeads (Miltenyi Biotec). Flk1+ MPCs were sorted by AutoMACS Pro Separator (Miltenyi Biotec). Sorted Flk1+ MPCs were plated onto the mitomycin-C (MMC) (Ag scientific) treated confluent OP9 cells at a density of 1-2×10^4 cells/cm^2 and cultured in the differentiation medium. The medium was changed every 2 days. CsA (a gift from Novartis Pharma, Korea) was treated in sorted Flk1+ MPCs on OP9 cells. CsA was dissolved in dimethyl sulfoxide (DMSO) (Sigma) and diluted 2┌ g/mL in the differentiation medium at the time of medium change. 10┌ M of Y27632 (purchased from Calbiochem) were treated in sorted Flk1+MPCs on OP9 cells and sorted MHC GFP+CMs at the time of medium change. Analysis and sorting for CMs were performed at day 10.5. We harvested differentiated Flk1+ MPCs on OP9 cells with 0.25% trypsin-EDTA or dissociation buffer (Invitrogen). Cardiac troponin-T (cTnT)+ and ┌ smooth muscle actin (SMA)+ cells were analyzed after permeabilization using Cytofix/Cytoperm solution (BD Biosciences) for 15 min. After permeabilization, the cells were incubated for 30 min with anti-mouse cTnT (NeoMarkers) monoclonal antibody. […] Data were analyzed using FlowJo Version 7.5.4 software (TreeStar).
# [4] = Y27632 10 μM plus CsA vs CsA only, day 10.5
compound,measurement,setting,value
C[C@@H](N)[C@H]1CC[C@H](C(=O)Nc2ccncc2)CC1 [Y27632],population of PHH3+/CD144+ ECs compared to control,"Flk1+ MPCs [1]; 36 hrs, Y27632 10 μM plus VEGF-A",3.7 fold
same,number of surrounding αSMA+MCs,"Flk1+ MPCs [1]; day 6.5, Y27632 10 μM",decreased
same,size and number of CD144+ EC colonies,"Flk1+ MPCs [1]; day 6.5, Y27632 10 μM",increased
same,population of Annexin V+/PI- apoptotic cells,Flk1+ MPCs [2],did not significantly change
same,apoptosis of ECs,ICAM2+ ECs,mildly inhibited
same,area of self-beating CMs,Flk1+ MPCs [3]; Y27632 10 μM plus CsA 2 μg/mL,strikingly increased
same,increase of cTnT+ CMs compared to control CsA only,"Flk1+ MPCs [3]; Y27632 10 μM plus CsA 2 μg/mL, 6 days",~1.9 fold
same,increase of area of cTnT+ CMs,Flk1+ MPCs [3]; [4],~2.3 fold
same,increase of area of αMHC GFP+ CMs,Flk1+ MPCs [3]; [4],~1.7 fold
